Results from patent US20240285552A1 (priority 2020, published 2024).
Where two headings read alike, the source gives them in different places. Residues, ends and D or L forms follow the SMILES beside them. *: point of attachment. Cbz = O=C(OCc1ccccc1)*; CH2F = FC*

What was measured:
SARS-CoV-2 USA_WA1/2020 = test: microbe, parasite or virus in culture; format: cell-based
in vitro [1] = conditions: human
[2] = tested on: SARS CoV-2 nanoluciferase reporter virus; test: microbe, parasite or virus in culture; format: cell-based; conditions: for Concentration at Maximum % Inhibition / Maximum Inhibition: A549-ACE2, NLRV; for IC50: read-out: IC50, viral replication, Nanoluciferase Reporter Virus Assay
in vitro [3] = conditions: African green monkey
Vero E6 cells = conditions: Example C (Table 4); for Conc. at Max. % Viability / Conc. at Min. % Viability / Max. Viability / Min. Viability: Vero E6
[4] = target: T1, recombinant human ACE2 (rhACE2) (Homo sapiens, UniProt Q9BYF1); test: ACE2 inhibitor screening assay (exopeptidase activity), CLQ and analogues, ZnCl2; format: biochemical
T1 construct: purchased BPS Bioscience 79923
Method: An ACE2 inhibitor screening assay kit with fluorogenic substrate (Catalogue #79923) was purchased from BPS Bioscience (San Diego, CA) and adapted to measure the exopeptidase activity of ACE2 in the presence and absence of inhibitors. The fluorescence assay was performed using a black flat-bottom 96-well plate with a final reaction volume of 50 μL following the manufacturer's instructions. 10 mM stock solutions of the compounds were prepared in Dimethyl sulfoxide (DMSO). Next, the compounds were serially diluted in DMSO as follows: 100 μM, 50 μM, 10 μM, 1 μM, 0.5 μM, and 0.1 μM for CLQ and CLBQ14 as well as 10 μM and 1 μM for CLCQ. All experiments were performed in triplicates. Each plate contained a positive control of enzyme-treated with vehicle alone (2% DMSO) and a blank control with no enzyme. Briefly, each reaction contained 24 μL of purified recombinant human ACE2 protein (0.42 ng/L) in ACE2 buffer, 1 μL of compound at serially diluted concentrations, and 25 μL ACE2 fluorogenic substrate. The total reaction volume was 50 μL. […] Thereafter, the fluorescence intensities (λExcitation=535 nm, λEmission=595 nm) were measured using a Beckman Coulter DTX880 multimode plate reader. […]
The effects of CLQ, CLBQ14, and CLCQ on the exopeptidase activity of rhACE2 were determined using a fluorometric assay provided by BPS Bioscience and adapted accordingly. […]

[5] = target: T2, rhACE2 and SARS-CoV-2 Spike (RBD) protein interaction (Homo sapiens, UniProt Q9BYF1); test: Spike (RBD)-ACE2 binding assay (ELISA); parameters: species or system human; SARS-CoV-2; conditions: bell shaped dose-response curve; CLQ series; read-out: IC50_2, ACE2-Spike (RBD) protein interaction
T2 construct: purchased RayBiotech CoV-SACE2-1

[6] = Severe acute respiratory syndrome coronavirus 2, Vero C1008, 72 h, read-out: IC50 against SARS-CoV-2 infection induced CPE
[7] = Severe acute respiratory syndrome coronavirus 2, Vero C1008, Example C (Table 3), read-out: IC 50 against SARS-COV-2 Induced Cytopathic Effect in Vero E6 Cells
[8] = Severe acute respiratory syndrome coronavirus 2, Vero C1008, Vero E6, Example B, highest concentration tested 30 μM, read-out: IC50 against SARS-CoV-2 infection induced CPE
[9] = Severe acute respiratory syndrome coronavirus 2, A549, 72 h
[10] = 50% cytotoxic concentration (CC50), Vero E6, 72 hours, Examples A and B, highest concentration 30 μM
[11] = Cytotoxicity CC50, A549 cells, 72 hours
[12] = Example C (Table 3), read-out: IC 50 against SARS-COV-2 Induced Cytopathic Effect in Vero E6 Cells
[13] = Cytotoxicity CC50, Vero E6, 72 hours, Example C (Table 4)

T1 sequence (Q9BYF1 18-805): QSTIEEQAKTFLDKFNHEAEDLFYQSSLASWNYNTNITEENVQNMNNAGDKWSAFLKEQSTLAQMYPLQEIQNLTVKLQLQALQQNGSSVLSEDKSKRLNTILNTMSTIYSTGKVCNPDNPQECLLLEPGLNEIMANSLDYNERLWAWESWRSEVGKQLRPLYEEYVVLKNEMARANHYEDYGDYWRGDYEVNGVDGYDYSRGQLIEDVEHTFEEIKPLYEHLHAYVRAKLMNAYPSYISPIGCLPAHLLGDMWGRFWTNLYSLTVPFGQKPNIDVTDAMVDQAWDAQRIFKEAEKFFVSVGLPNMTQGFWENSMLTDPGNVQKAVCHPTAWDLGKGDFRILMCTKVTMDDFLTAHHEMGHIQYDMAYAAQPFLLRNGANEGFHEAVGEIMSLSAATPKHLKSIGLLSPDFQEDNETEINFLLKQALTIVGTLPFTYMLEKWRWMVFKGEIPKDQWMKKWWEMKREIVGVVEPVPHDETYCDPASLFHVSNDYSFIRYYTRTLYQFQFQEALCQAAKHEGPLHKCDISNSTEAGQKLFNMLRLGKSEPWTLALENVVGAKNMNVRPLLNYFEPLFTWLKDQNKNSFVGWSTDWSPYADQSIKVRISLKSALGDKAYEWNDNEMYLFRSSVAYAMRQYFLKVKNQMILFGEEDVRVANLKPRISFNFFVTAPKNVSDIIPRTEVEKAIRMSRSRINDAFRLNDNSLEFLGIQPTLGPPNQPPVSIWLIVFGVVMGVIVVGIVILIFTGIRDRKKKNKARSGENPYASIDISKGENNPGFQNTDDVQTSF
T2 sequence (Q9BYF1 18-740): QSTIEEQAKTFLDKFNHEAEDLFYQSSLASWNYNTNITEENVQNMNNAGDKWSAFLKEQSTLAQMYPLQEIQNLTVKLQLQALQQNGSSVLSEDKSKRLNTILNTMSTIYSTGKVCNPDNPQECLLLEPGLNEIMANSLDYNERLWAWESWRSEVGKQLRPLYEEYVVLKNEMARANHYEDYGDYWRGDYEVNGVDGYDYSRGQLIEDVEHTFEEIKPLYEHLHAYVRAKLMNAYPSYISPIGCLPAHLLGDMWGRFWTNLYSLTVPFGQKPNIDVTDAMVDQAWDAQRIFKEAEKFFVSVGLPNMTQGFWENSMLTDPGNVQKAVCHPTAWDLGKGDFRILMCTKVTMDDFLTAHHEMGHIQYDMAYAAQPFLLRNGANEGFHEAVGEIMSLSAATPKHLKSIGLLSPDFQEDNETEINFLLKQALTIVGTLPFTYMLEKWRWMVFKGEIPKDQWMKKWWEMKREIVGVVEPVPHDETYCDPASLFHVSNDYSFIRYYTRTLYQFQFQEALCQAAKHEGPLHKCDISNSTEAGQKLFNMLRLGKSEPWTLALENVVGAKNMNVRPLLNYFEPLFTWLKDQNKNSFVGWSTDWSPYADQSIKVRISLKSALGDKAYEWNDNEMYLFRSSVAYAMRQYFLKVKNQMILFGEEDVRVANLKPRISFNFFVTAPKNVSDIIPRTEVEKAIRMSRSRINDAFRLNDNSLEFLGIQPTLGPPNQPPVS

| Structure (SMILES) | Conc. at Max. % Viability (A549 cells) | Conc. at Min. % Viability (A549 cells) | Max. Viability (A549 cells) | Min. Viability (A549 cells) | Concentration at Maximum % Inhibition (SARS-CoV-2 USA_WA1/2020; Example C (Table 3)) | Maximum Inhibition (SARS-CoV-2 USA_WA1/2020; Example C (Table 3)) | IC50 (SARS-CoV-2 USA_WA1/2020; [6]) | IC50 (SARS-CoV-2 USA_WA1/2020; [8]) | Concentration at Maximum % Inhibition [2] | Maximum Inhibition [2] | Conc. at Max. % Viability (Vero E6 cells) | Conc. at Min. % Viability (Vero E6 cells) | Max. Viability (Vero E6 cells) | Min. Viability (Vero E6 cells) | also measured |
| --- | --- | --- | --- | --- | --- | --- | --- | --- | --- | --- | --- | --- | --- | --- | --- |
| CCN(CC)CCCC(C)Nc1ccnc2cc(Cl)ccc12 (centres unmarked) [Chloroquine] | .023 µM | 30 µM | 117.48% | 9.11% | 30 µM | 114.51% | 1.1 µM | 3.56 µM | 15 µM | 99.53% | 0.469 µM | 3.750 µM | 99.66% | 90.50% | IC50 (SARS-CoV-2 USA_WA1/2020; [7]): 8.85 µM; CC50 at 72 h (in vitro [1]): 18.4 µM; IC50 [2, 9]: 3300 nM; CC50 at 72 h (in vitro [3]): > 30 µM |
| [Cl-].[Cl-].[Zn+2] [ZnCl2, Zinc Chloride] |  |  |  |  |  |  |  |  |  |  |  |  |  |  | effect on rhACE2 exopeptidase activity ([4]; 100 μM to 100 nM): increasing exopeptidase activity |
| Oc1c(Br)cc(Cl)c2cccnc12 [CLBQ14, 7-bromo-5-chloro-8-hydroxyquinoline] |  |  |  |  |  |  | 14.7 µM |  |  |  |  |  |  |  | inhibition at 30 µM (SARS-CoV-2 USA_WA1/2020; Severe acute respiratory syndrome coronavirus 2, Vero C1008, at 30 μM, Example A, read-out: maximum inhibition of CPE): ~103%; CC50 at 72 h (in vitro [3]; [10]): > 30 µM |
| CCN(CCO)CCCC(C)Nc1ccnc2cc(Cl)ccc12 (centres unmarked) [Hydroxychloroquine] |  |  |  |  |  |  | 5.04 µM | 5.16 µM |  |  |  |  |  |  |  |
| CC(C)C(=O)OC[C@H]1O[C@@H](n2ccc(NO)nc2=O)[C@H](O)[C@@H]1O [Molnupiravir] | .002 µM | 0.014 µM | 98.56% | 88.88% |  |  |  |  | 10 µM | 91.12% |  |  |  |  | CC50 at 72 h (in vitro [1]; [11]): > 10 µM; IC50 [2, 9]: 4200 nM |
| Oc1c(I)cc(Cl)c2cccnc12 [CLQ, 5-chloro-7-iodo-8-quinolinol] |  |  |  |  |  |  | 12.6 µM |  |  |  |  |  |  |  | CC50 at 72 h (in vitro [3]; [10]): > 30 µM; IC50 ([4]; 2.5 hours, room temperature, read-out: IC50 against rhACE2 exopeptidase activity): 5.36 µM; IC50 [5]: 18.2 µM |
| CCC(CC)COC(=O)[C@H](C)N[P@](=O)(OC[C@H]1O[C@@](C#N)(c2ccc3c(N)ncnn23)[C@H](O)[C@@H]1O)Oc1ccccc1 [Remdesivir] | .006 µM | 0.094 µM | 95.46% | 84.65% | 30 µM | 120.89% | 4.42 µM | 8.54 µM | 1.5 µM | 99.58% | 3.750 µM | 0.117 µM | 100.73% | 91.15% | IC50 (SARS-CoV-2 USA_WA1/2020; [12]): 16.1 µM; IC50 (SARS-CoV-2 USA_WA1/2020; [7]): 16 µM; CC50 (in vitro [1]; [11]): > 3000 nM; CC50 (in vitro [3]; [13]): > 30 µM |
| CC(C)(C)[C@H](NC(=O)C(F)(F)F)C(=O)N1C[C@H]2[C@@H]([C@H]1C(=O)N[C@H](C#N)C[C@@H]1CCNC1=O)C2(C)C [PF-07321332] |  |  |  |  |  |  |  |  | 0.5 µM | 99.67% |  |  |  |  | IC50 ([2]; listed as Paxlovid): 50 nM; IC50 [2]: 57 nM |
| Oc1c(Cl)cc(Cl)c2cccnc12 [CLCQ, 5,7-Dichloro-8-hydroxyquinoline] |  |  |  |  |  |  | 16.3 µM |  |  |  |  |  |  |  | CC50 (in vitro [3]; [10]): > 30 µM |
| CC(C)C[C@H](NC(=O)OCc1ccccc1)C(=O)N[C@@H](CC(C)C)C(=O)N[C@@H](Cc1ccc(O)cc1)C(=O)CF [Calpain Inhibitor IV] (Cbz-Leu-Leu-Tyr-CH2F) | .090 µM | .0056 µM | 94.37% | 77.49% | 7.17 µM | 115.91% |  |  | .0028 µM | 99.56% | 0.056 µM | 0.028 µM | 106.84% | 99.77% | CC50 (A549 cells; read-out: Cytotoxicity CC50, 72 hours): > 179 nM; IC50 (SARS-CoV-2 USA_WA1/2020; Vero E6, Example B, highest concentration tested 30 μM, read-out: IC50 against SARS-CoV-2 infection induced CPE): 0.29 µM; IC50 (SARS-CoV-2 USA_WA1/2020; read-out: IC 50 against SARS-COV-2 Induced Cytopathic Effect in Vero E6 Cells): 3.73 µM; IC50 (SARS-CoV-2 USA_WA1/2020; read-out: IC50 against SARS-CoV-2 infection induced CPE): 0.41 µM; IC50 [2]: 0.5 nM; CC50 (Vero E6 cells; read-out: Cytotoxicity CC50, Vero E6, 72 hours): > 7.17 µM |
| CCOC(=O)[C@H]1O[C@@H]1C(=O)N[C@@H](CC(C)C)C(=O)NCCC(C)C [Aloxistatin] |  |  |  |  | 15 µM | 130.81% | 16.7 µM | 21.8 µM |  |  | 0.234 µM | 0.117 µM | 106.71% | 93.02% | IC50 (SARS-CoV-2 USA_WA1/2020; [12]): 4.59 µM; IC50 (SARS-CoV-2 USA_WA1/2020; [7]): 4.58 µM; CC50 at 72 h (in vitro [3]; [13]): > 30 µM |
